Patent US11766427B2, “Repurposing compounds for the treatment of infections and for modulating the composition of the gut microbiome” (EUROPEAN MOLECULAR BIOLOGY LABORATORY, priority 2018, dated 2023)
Like-named read-outs stand apart in the source and are kept apart here. One block for each molecule: values may come before it.

Assays:
[1] = test system: Fusobacterium nucleatum (NT5025); assay: Prestwick Chemical Library growth screen (OD578 growth curves, AUC); type: cell-based; conditions: screen at 20 μM
[2] = test system: 40 different bacterial species; assay: Prestwick Chemical Library growth screen, whole panel (hits, anticommensal activity); type: cell-based, human gut isolates
22 strains = assay: MIC of metformin at higher concentrations; conditions: 5/22 strains
[3] = Estimated gut concentration from administration dose; conditions: estimated from recommended administration dose
[4] = calculated; cited from earlier work
[5] = cited from earlier work

SMILES: O=c1cc(-c2ccc(O)c(O)c2)oc2cc(O)cc(O)c12 [Luteolin]
selective inhibition of the growth of Fusobacterium nucleatum (in words) [1]: selectively inhibiting the growth
n_hit ([2]; number of species inhibited of 40 different bacterial species tested): 1

Minimal Inhibitory Concentration (MIC) (22 strains): < 10 mM
estimated gut concentration [3]: 5 mM
SMILES: CN(C)C(=N)N=C(N)N [metformin]
small intestine concentration relative to plasma concentration [4]: 30-300 fold
anticommensal activity in the screen (in words) ([2]; 20 μM, 40 strains, FDR<0.01): did not show anticommensal activity

SMILES: CC[C@@H]([C@H](C)O)n1ncn(-c2ccc(N3CCN(c4ccc(OC[C@@H]5CO[C@@](Cn6cncn6)(c6ccc(F)cc6F)C5)cc4)CC3)cc2)c1=O [posaconazole]
maximum concentration in the duodenum ([5]; 40 mg (57 μmol) delivered to the stomach in acidic solution): 26.3 ± 10.3 µM
maximum concentration in the duodenum ([5]; 40 mg (57 μmol) delivered to the stomach in neutral solution): 13.6 ± 5.8 µM
